Test results: ChEMBL document CHEMBL5321200, “Discovery of the GSH responsive "Y-PROTACs" targeting ALK and CDK4/6 as a potential treatment for cancer” (Eur J Med Chem, 2023)
Activity calls are given as the source filed them. The rule behind the calls is not given here.

Key:
NCI-H3122 [1] = assay: Cell cycle arrest in human NCI-H3122 cells assessed as accumulation of cells at G0/G1 phase at 0.312 uM incubated for 24 hrs by propidium iodide staining based flow cytometric analysis (reference value: 45.91%); format: functional
NCI-H3122 [2] = assay: Cell cycle arrest in human NCI-H3122 cells assessed as accumulation of cells at S phase at 0.312 uM incubated for 24 hrs by propidium iodide staining based flow cytometric analysis (reference value: 34.86%); format: functional
NCI-H3122 [3] = assay: Induction of apoptosis in human NCI-H3122 cells assessed as necrotic cells at 1.25 uM incubated for 48 hrs by Annexin V-FITC/propidium iodide staining based flow cytometric analysis (reference value: 3.53%); format: functional
NCI-H3122 [4] = assay: Cell cycle arrest in human NCI-H3122 cells assessed as accumulation of cells at S phase at 1.25 uM incubated for 24 hrs by propidium iodide staining based flow cytometric analysis (reference value: 34.86%); format: functional
NCI-H3122 [5] = assay: Induction of apoptosis in human NCI-H3122 cells assessed as viable cells at 0.312 uM incubated for 48 hrs by Annexin V-FITC/propidium iodide staining based flow cytometric analysis (reference value: 94.19%); format: functional; settings: read-out: Activity
NCI-H3122 [6] = assay: Induction of apoptosis in human NCI-H3122 cells assessed as early apoptotic cells at 0.625 uM incubated for 48 hrs by Annexin V-FITC/propidium iodide staining based flow cytometric analysis (reference value: 0.50%); format: functional
NCI-H3122 [7] = assay: Induction of apoptosis in human NCI-H3122 cells assessed as late apoptotic cells at 0.312 uM incubated for 48 hrs by Annexin V-FITC/propidium iodide staining based flow cytometric analysis (reference value: 1.73%); format: functional
NCI-H1299 [8] = assay: Antiproliferative activity against human NCI-H1299 cells assessed as inhibition of cell growth incubated for 3 to 5 days by MTT assay; format: functional, cell-based
[9] = Cytotoxicity against human L02 cells assessed as inhibition of cell growth pretreated with GSH followed by compound addition and incubated for 3 to 5 days by MTT assay; format: toxicity, cell-based
NCI-H3122 [10] = assay: Cell cycle arrest in human NCI-H3122 cells assessed as accumulation of cells at G2/M phase at 1.25 uM incubated for 24 hrs by propidium iodide staining based flow cytometric analysis (reference value: 18.55%); format: functional
NCI-H3122 [11] = assay: Induction of apoptosis in human NCI-H3122 cells assessed as viable cells at 2.5 uM incubated for 48 hrs by Annexin V-FITC/propidium iodide staining based flow cytometric analysis (reference value: 94.19%); format: functional; settings: read-out: Activity
[12] = Cytotoxicity against human L02 cells assessed as inhibition of cell growth incubated for 3 to 5 days by MTT assay; format: toxicity, cell-based
NCI-H3122 [13] = assay: Antiproliferative activity against human NCI-H3122 cells assessed as inhibition of cell growth incubated for 3 to 5 days by MTT assay; format: functional, cell-based
NCI-H2228 [14] = assay: Antiproliferative activity against human NCI-H2228 cells assessed as inhibition of cell growth incubated for 3 to 5 days by MTT assay; format: functional, cell-based
NCI-H3122 [15] = assay: Cell cycle arrest in human NCI-H3122 cells assessed as accumulation of cells at S phase at 2.5 uM incubated for 24 hrs by propidium iodide staining based flow cytometric analysis (reference value: 34.86%); format: functional
NCI-H3122 [16] = assay: Cell cycle arrest in human NCI-H3122 cells assessed as accumulation of cells at S phase at 0.625 uM incubated for 24 hrs by propidium iodide staining based flow cytometric analysis (reference value: 34.86%); format: functional
NCI-H3122 [17] = assay: Induction of apoptosis in human NCI-H3122 cells assessed as necrotic cells at 2.5 uM incubated for 48 hrs by Annexin V-FITC/propidium iodide staining based flow cytometric analysis (reference value: 3.53%); format: functional
NCI-H3122 [18] = assay: Induction of apoptosis in human NCI-H3122 cells assessed as early apoptotic cells at 1.25 uM incubated for 48 hrs by Annexin V-FITC/propidium iodide staining based flow cytometric analysis (reference value: 0.50%); format: functional
NCI-H2228 [19] = assay: Antiproliferative activity against human NCI-H2228 cells assessed as inhibition of cell growth pretreated with GSH followed by compound addition and incubated for 3 to 5 days by MTT assay; format: functional, cell-based
NCI-H3122 [20] = assay: Cell cycle arrest in human NCI-H3122 cells assessed as accumulation of cells at G0/G1 phase at 0.625 uM incubated for 24 hrs by propidium iodide staining based flow cytometric analysis (reference value: 45.91%); format: functional
NCI-H3122 [21] = assay: Induction of apoptosis in human NCI-H3122 cells assessed as necrotic cells at 0.625 uM incubated for 48 hrs by Annexin V-FITC/propidium iodide staining based flow cytometric analysis (reference value: 3.53%); format: functional
NCI-H3122 [22] = assay: Cell cycle arrest in human NCI-H3122 cells assessed as accumulation of cells at G2/M phase at 0.312 uM incubated for 24 hrs by propidium iodide staining based flow cytometric analysis (reference value: 18.55%); format: functional
NCI-H3122 [23] = assay: Cell cycle arrest in human NCI-H3122 cells assessed as accumulation of cells at G0/G1 phase at 2.5 uM incubated for 24 hrs by propidium iodide staining based flow cytometric analysis (reference value: 45.91%); format: functional
NCI-H3122 [24] = assay: Induction of apoptosis in human NCI-H3122 cells assessed as late apoptotic cells at 0.625 uM incubated for 48 hrs by Annexin V-FITC/propidium iodide staining based flow cytometric analysis (reference value: 1.73%); format: functional
NCI-H3122 [25] = assay: Induction of apoptosis in human NCI-H3122 cells assessed as early apoptotic cells at 2.5 uM incubated for 48 hrs by Annexin V-FITC/propidium iodide staining based flow cytometric analysis (reference value: 0.50%); format: functional
NCI-H3122 [26] = assay: Induction of apoptosis in human NCI-H3122 cells assessed as late apoptotic cells at 1.25 uM incubated for 48 hrs by Annexin V-FITC/propidium iodide staining based flow cytometric analysis (reference value: 1.73%); format: functional
NCI-H3122 [27] = assay: Induction of apoptosis in human NCI-H3122 cells assessed as viable cells at 0.625 uM incubated for 48 hrs by Annexin V-FITC/propidium iodide staining based flow cytometric analysis (reference value: 94.19%); format: functional; settings: read-out: Activity
NCI-H1299 [28] = assay: Antiproliferative activity against human NCI-H1299 cells assessed as inhibition of cell growth pretreated with GSH followed by compound addition and incubated for 3 to 5 days by MTT assay; format: functional, cell-based
NCI-H3122 [29] = assay: Cell cycle arrest in human NCI-H3122 cells assessed as accumulation of cells at G0/G1 phase at 1.25 uM incubated for 24 hrs by propidium iodide staining based flow cytometric analysis (reference value: 45.91%); format: functional
NCI-H3122 [30] = assay: Induction of apoptosis in human NCI-H3122 cells assessed as viable cells at 1.25 uM incubated for 48 hrs by Annexin V-FITC/propidium iodide staining based flow cytometric analysis (reference value: 94.19%); format: functional; settings: read-out: Activity
NCI-H3122 [31] = assay: Antiproliferative activity against human NCI-H3122 cells assessed as inhibition of cell growth pretreated with GSH followed by compound addition and incubated for 3 to 5 days by MTT assay; format: functional, cell-based
NCI-H3122 [32] = assay: Induction of apoptosis in human NCI-H3122 cells assessed as late apoptotic cells at 2.5 uM incubated for 48 hrs by Annexin V-FITC/propidium iodide staining based flow cytometric analysis (reference value: 1.73%); format: functional
[33] = target: Protein cereblon/Cyclin-dependent kinase 6 (Homo sapiens) (UniProt Q00534+Q96SW2); assay: PROTAC activity at CRBN/CDK6 in human NCI-H3122 cells assessed as reduction in CDK6 protein level at 1 uM incubated for 24 hrs by Western blot analysis; format: cell-based
Protein cereblon/Cyclin-dependent kinase 6 (Homo sapiens), sequence (Q00534 whole entry, looked up): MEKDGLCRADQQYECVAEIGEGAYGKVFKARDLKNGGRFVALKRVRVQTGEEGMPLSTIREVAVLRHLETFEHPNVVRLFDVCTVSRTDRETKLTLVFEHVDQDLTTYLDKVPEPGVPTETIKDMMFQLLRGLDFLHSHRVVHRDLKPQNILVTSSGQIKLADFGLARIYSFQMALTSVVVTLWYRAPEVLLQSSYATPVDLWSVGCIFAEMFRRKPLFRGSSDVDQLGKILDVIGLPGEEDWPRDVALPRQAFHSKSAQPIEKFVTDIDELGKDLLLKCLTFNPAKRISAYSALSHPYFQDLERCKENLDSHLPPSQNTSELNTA
Protein cereblon/Cyclin-dependent kinase 6 (Homo sapiens), sequence (Q96SW2 whole entry, looked up): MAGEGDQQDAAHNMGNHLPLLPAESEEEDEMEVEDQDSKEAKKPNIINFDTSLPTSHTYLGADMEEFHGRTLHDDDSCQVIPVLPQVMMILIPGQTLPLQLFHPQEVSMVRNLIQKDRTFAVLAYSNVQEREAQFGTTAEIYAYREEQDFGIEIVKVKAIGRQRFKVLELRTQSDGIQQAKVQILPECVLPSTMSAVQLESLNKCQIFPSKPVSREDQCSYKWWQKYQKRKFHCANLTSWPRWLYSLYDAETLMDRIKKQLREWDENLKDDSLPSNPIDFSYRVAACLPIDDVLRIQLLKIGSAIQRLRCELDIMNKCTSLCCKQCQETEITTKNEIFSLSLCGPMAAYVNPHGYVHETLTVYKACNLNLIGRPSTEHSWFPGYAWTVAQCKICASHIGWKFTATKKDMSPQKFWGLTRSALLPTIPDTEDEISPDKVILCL

NCI-H3122 [34] = assay: Induction of apoptosis in human NCI-H3122 cells assessed as total apoptotic cells at 2.5 uM incubated for 48 hrs by Annexin V-FITC/propidium iodide staining based flow cytometric analysis relative to control; format: functional
NCI-H3122 [35] = assay: Induction of apoptosis in human NCI-H3122 cells assessed as necrotic cells at 0.312 uM incubated for 48 hrs by Annexin V-FITC/propidium iodide staining based flow cytometric analysis (reference value: 3.53%); format: functional
NCI-H3122 [36] = assay: Induction of apoptosis in human NCI-H3122 cells assessed as early apoptotic cells at 0.312 uM incubated for 48 hrs by Annexin V-FITC/propidium iodide staining based flow cytometric analysis (reference value: 0.50%); format: functional
NCI-H3122 [37] = assay: Cell cycle arrest in human NCI-H3122 cells assessed as accumulation of cells at G2/M phase at 2.5 uM incubated for 24 hrs by propidium iodide staining based flow cytometric analysis (reference value: 18.55%); format: functional
NCI-H3122 [38] = assay: Cell cycle arrest in human NCI-H3122 cells assessed as accumulation of cells at G2/M phase at 0.625 uM incubated for 24 hrs by propidium iodide staining based flow cytometric analysis (reference value: 18.55%); format: functional

IC50 (NCI-H1299 [8]): 1740 nM | IC50 (NCI-H3122 [13]): 60 nM | IC50 (NCI-H2228 [14]): 580 nM | IC50 (NCI-H2228 [19]): 590 nM | IC50 (NCI-H1299 [28]): 1620 nM | IC50 (NCI-H3122 [31]): 60 nM | Activity [33]: inactive
SMILES: Cc1cc(Nc2ncc(Cl)c(Nc3ccccc3S(=O)(=O)C(C)C)n2)c(OC(C)C)cc1C1CCNCC1 [CERITINIB]
Activity (NCI-H3122 [1]): 52.82% | Activity (NCI-H3122 [2]): 12.62% | Activity (NCI-H3122 [3]): 4.45% | Activity (NCI-H3122 [4]): 15.21% | viability at 0.312 µM (NCI-H3122 [5]): 91.3% | Activity (NCI-H3122 [6]): 1.88% | Activity (NCI-H3122 [7]): 3.61% | IC50 [9]: 1030 nM | Activity (NCI-H3122 [10]): 28.18% | viability at 2.5 µM (NCI-H3122 [11]): 87.4% | IC50 [12]: 3510 nM | Activity (NCI-H3122 [15]): 14.93% | Activity (NCI-H3122 [16]): 14.15% | Activity (NCI-H3122 [17]): 1.93% | Activity (NCI-H3122 [18]): 1.99% | Activity (NCI-H3122 [20]): 57.79% | Activity (NCI-H3122 [21]): 4.19% | Activity (NCI-H3122 [22]): 33.92% | Activity (NCI-H3122 [23]): 60.69% | Activity (NCI-H3122 [24]): 5.87% | Activity (NCI-H3122 [25]): 3.86% | Activity (NCI-H3122 [26]): 6.24% | viability at 0.625 µM (NCI-H3122 [27]): 88.1% | Activity (NCI-H3122 [29]): 55.92% | viability at 1.25 µM (NCI-H3122 [30]): 87.3% | Activity (NCI-H3122 [32]): 6.94% | Activity (NCI-H3122 [34]): 10.8% | Activity (NCI-H3122 [35]): 4.19% | Activity (NCI-H3122 [36]): 0.91% | Activity (NCI-H3122 [37]): 24.08% | Activity (NCI-H3122 [38]): 27.27%
